Measured values reported in PubChem BioAssay AID2060892 (Molecular Pharmacology Branch, DTP, NCI, 2025).

Test system: HOP-62 complex spheroids with HUVEC/MSC, viability
Test: Anticancer human tumor HOP-62 cell line growth inhibition [RAS];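 also: spheroids exposed to agents for seven days before readout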;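 as to viability, T/C: 100% = DMSO vehicle control viability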
Details: for IC50: curve of first compound; for viability, T/C: stronger effect = lower value; active = viability on the fitted dose curve at most 10% of control; inactive = the rest
Summary of the method: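 Multi-cell-type spheroids: tumor cells plus HUVEC endothelial cells and mesenchymal stem cells. RAS-pathway inhibitors were combined with targeted agents, each dosed in half-log steps down from clinical Cmax, or from 10 microM when Cmax was unknown.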

[1] = second compound 0.0316 µM, first compound 0.0316 µM
[2] = second compound 0.0316 µM, first compound 0.1 µM
[3] = second compound 0.0316 µM, first compound 0.316 µM
[4] = second compound 0.0316 µM, first compound 1 µM
[5] = second compound 0.0316 µM, first compound 3.16 µM
[6] = second compound 0.0316 µM, first compound 10 µM
[7] = second compound 0.1 µM, first compound 0.0316 µM
[8] = second compound 0.1 µM, first compound 0.1 µM
[9] = second compound 0.1 µM, first compound 0.316 µM
[10] = second compound 0.1 µM, first compound 1 µM
[11] = second compound 0.1 µM, first compound 3.16 µM
[12] = second compound 0.1 µM, first compound 10 µM
[13] = second compound 0.316 µM, first compound 0.0316 µM
[14] = second compound 0.316 µM, first compound 0.1 µM
[15] = second compound 0.316 µM, first compound 0.316 µM
[16] = second compound 0.316 µM, first compound 1 µM
[17] = second compound 0.316 µM, first compound 3.16 µM
[18] = second compound 0.316 µM, first compound 10 µM
[19] = second compound 1 µM, first compound 0.0316 µM
[20] = second compound 1 µM, first compound 0.1 µM
[21] = second compound 1 µM, first compound 0.316 µM
[22] = second compound 1 µM, first compound 1 µM
[23] = second compound 1 µM, first compound 3.16 µM
[24] = second compound 1 µM, first compound 10 µM
[25] = second compound 3.16 µM, first compound 0.0316 µM
[26] = second compound 3.16 µM, first compound 0.1 µM
[27] = second compound 3.16 µM, first compound 0.316 µM
[28] = second compound 3.16 µM, first compound 1 µM
[29] = second compound 3.16 µM, first compound 3.16 µM
[30] = second compound 3.16 µM, first compound 10 µM
[31] = second compound 10 µM, first compound 0.0316 µM
[32] = second compound 10 µM, first compound 0.1 µM
[33] = second compound 10 µM, first compound 0.316 µM
[34] = second compound 10 µM, first compound 1 µM
[35] = second compound 10 µM, first compound 3.16 µM
[36] = second compound 10 µM, first compound 10 µM

CC1(O)CCCC1n1c(=O)c(C(F)F)cc2cnc(NC3CCN(S(C)(=O)=O)CC3)nc21 (centres undefined) + C#Cc1c(F)ccc2cc(O)cc(-c3ncc4c(N5CC6CCC(C5)N6)nc(OCC56CCCN5CC(F)C6)nc4c3F)c12
383 nM: IC50 (second compound 0.0316 µM)
inactive: viability, T/C [1] 87.9% | viability, T/C [2] 53.1% | viability, T/C [3] 43.3% | viability, T/C [4] 40.5% | viability, T/C [5] 47.8% | viability, T/C [6] 0.9% | viability, T/C [7] 91.3% | viability, T/C [8] 52.2% | viability, T/C [9] 45.3% | viability, T/C [10] 48.8% | viability, T/C [11] 35.7% | viability, T/C [12] 1.45% | viability, T/C [13] 91.4% | viability, T/C [14] 50.7% | viability, T/C [15] 38% | viability, T/C [16] 42% | viability, T/C [17] 42.2% | viability, T/C [18] 1.44% | viability, T/C [19] 84.7% | viability, T/C [20] 53.6% | viability, T/C [21] 37.2% | viability, T/C [22] 45.2% | viability, T/C [23] 40% | viability, T/C [24] 3.73% | viability, T/C [25] 66.6% | viability, T/C [26] 47.9% | viability, T/C [27] 34% | viability, T/C [28] 41.4% | viability, T/C [29] 27.6% | viability, T/C [31] 42% | viability, T/C [32] 37.3% | viability, T/C [33] 27.8% | viability, T/C [34] 29.4% | viability, T/C [35] 32.5% | viability, T/C [36] 1.15%
< 31.6 nM: IC50 (second compound 10 µM)
active: viability, T/C [30] 1.45%
324 nM: IC50 (second compound 1 µM)
146 nM: IC50 (second compound 3.16 µM)
343 nM: IC50 (second compound 0.316 µM)
398 nM: IC50 (second compound 0.1 µM)

CCC(CC)c1cc(NC2CCC(N)C2)n2nccc2n1 (centres undefined) + C#Cc1c(F)ccc2cc(O)cc(-c3ncc4c(N5CC6CCC(C5)N6)nc(OCC56CCCN5CC(F)C6)nc4c3F)c12
1750 nM: IC50 (second compound 1 µM)
1860 nM: IC50 (second compound 0.1 µM)
1800 nM: IC50 (second compound 0.316 µM)
inactive: viability, T/C [1] 108% | viability, T/C [2] 111% | viability, T/C [3] 107% | viability, T/C [4] 88.2% | viability, T/C [7] 112% | viability, T/C [8] 115% | viability, T/C [9] 118% | viability, T/C [10] 107% | viability, T/C [13] 122% | viability, T/C [14] 105% | viability, T/C [15] 111% | viability, T/C [16] 101% | viability, T/C [19] 108% | viability, T/C [20] 104% | viability, T/C [21] 99.9% | viability, T/C [22] 96.7% | viability, T/C [25] 83.7% | viability, T/C [26] 90.8% | viability, T/C [27] 88.3% | viability, T/C [28] 79.5% | viability, T/C [31] 48.1% | viability, T/C [32] 47.3% | viability, T/C [33] 56% | viability, T/C [34] 70.2%
1540 nM: IC50 (second compound 3.16 µM)
active: viability, T/C [5] 0.7% | viability, T/C [6] 0.37% | viability, T/C [11] 1.36% | viability, T/C [12] 1.21% | viability, T/C [17] 0.69% | viability, T/C [18] 0.93% | viability, T/C [23] 0.48% | viability, T/C [24] 0.25% | viability, T/C [29] 0.74% | viability, T/C [30] 1.33% | viability, T/C [35] 0.95% | viability, T/C [36] 0.56%
1120 nM: IC50 (second compound 10 µM)
1650 nM: IC50 (second compound 0.0316 µM)
